Reference: patent US20130109680A1, “METHODS AND COMPOSITIONS FOR AMELIORATING THIAZIDE INDUCED […]” (University of Florida Research Foundation, Inc., priority 2007, published 2013)
“And” between values parts separate entries of the source, which are not always exact repeats. Identical values can stand only once. Marks after values point to notes of the source that are not given here.

Experiments:
Assay type in all cases: in vivo, Sprague Dawley rats
[1] = test system: rats on 60% fructose diet; assay: Biochemical measurements of serum and urine in fructose-fed rats; conditions: for serum uric acid (change in words): FIG. 2A; for serum uric acid (change in words) / serum triglycerides (change in words): weeks 4, 14, 20; for serum triglycerides (change in words): FIG. 2D
Protocol: (§1) Male Sprague Dawley rats (150-200 g, Charles River Inc., Wilmington, Mass.) were placed on a standard natural ingredient diet (catalog #7912, Harlan, Wis.) for a five day run-in period with collection of basal blood and urine. Rats were then divided into 5 groups with similar body weight and baseline blood chemistry (n=8 each group).
(§2) Group 3 (F+HCTZ): 60% fructose diet plus hydrochlorothiazide (HCTZ, Sigma-Aldrich, St. Louis, Mo.) 10 mg/kg/day dissolved in drinking water
(§3) We monitored serum K^+ and increased the concentration of KCL at week 5 (1.5% KCL), week 15 (1.75% KCL) and week 17 (2% KCL) to maintain normal k^+ level in serum through the whole study.
(§4) Group 5 (F+HCTZ+Allopurinol): 60% fructose diet plus the same dose of HCTZ and allopurinol 150 mg/L dissolved in drinking water
(§5) Rats were weighed weekly and housed separately in metabolic cages for overnight collection of urine (over 18 hrs) with free access to water and no food on weeks 4, 14 and 20. Four hour fasting serum was also collected from the tail vein within the same week of urine collection. At the end of week 20, rats were sacrificed.
Serum and urine K^+ concentrations were determined with the atomic absorption spectrophotometer (Perkin-Elmer 306). Routine chemistries (including serum glucose, cholesterol, triglycerides, blood urea nitrogen (BUN), sodium, chloride, bicarbonate (HCO3^−) and magnesium (Mg^++); serum and urine creatinine (Cr), uric acid and urine protein concentration) were measured using an autoanalyzer (VetAce, Alfa Wassermann, Inc., West Caldwell, N.J.).

[2] = test system: rats on 60% fructose diet; assay: Tail cuff systolic blood pressure measurement in fructose-fed rats; conditions: for systolic blood pressure (SBP): conscious rats, mean±SD
Protocol: as §1, §2, §3, §4
Systolic blood pressure (SBP) measurement was performed in conscious rats with the use of a tail-cuff sphygmomanometer (Visitech BP2000, Visitech Systems, Apex, N.C.) at weeks 4 and 16. After three time periods of preconditioning, rats were placed in prewarmed chambers (37° C.) for 10-15 min, the pressure and pulse were measured by an automatic tail-cuff inflater and a built-in transducer. The mean of three stable BP readings was used.

[3] = test system: rats on 60% fructose diet; assay: Serum insulin and Quantitative Insulin Sensitivity Check Index (QUICKI); conditions: for QUICKI / insulin sensitivity (in words): week 14, FIG. 3
Protocol: as §1
Fasting serum glucose and insulin were obtained at week 14 and used to calculate the QUICKI value. Serum insulin was determined by using the rat insulin ELISA kit (Crystal Chem, Chicago, Ill.) which can detect serum insulin in the range of 156-10,000 pg/ml and has the 3.5% intra-assay and 6.3% inter-assay precision. QUICKI is a mathematical model based on log-transformed fasting plasma glucose and insulin values by equal 1/(log [glucose]+log [insulin]). QUICKI predicts insulin sensitivity with lower values representing more insulin resistance.

[4] = test system: rats on 60% fructose diet; assay: Insulin tolerance test (ITT); conditions: week 18, 0.75 U/kg insulin i.p., FIG. 4
Protocol: as §1
At week 18, the ITT was performed on animals fasted for 16 hours by administering 0.75 U/kg recombinant human insulin (Novolin; Novo Nordisk, Princeton, N.J.) via intraperitoneal injection. Blood glucose was determined on tail blood via hand-held blood glucose monitor (OneTouch, Johnson & Johnson) at 5 points; before insulin injection, and at 15, 30, 45 and 60 minutes after insulin injection.

[5] = test system: rats on 60% fructose diet; assay: Measurement of urinary nitric oxide (nitrate/nitrite); conditions: FIG. 5
Text: as §1, §5
Urine was determined NO by using the nitrate/nitrite colorimetric assay kit (Cayman Chemical Company, MI). The kit measures NO reaction products, total nitrate and nitrite concentrations with a modified two-step Griess reaction.

NS(=O)(=O)c1cc2c(cc1Cl)NCNS2(=O)=O [F+HCTZ, hydrochlorothiazide]
serum uric acid (change in words) [1]: greater hyperuricemia
serum uric acid (change in words) ([1]; listed as Hydrochlorothiazide): more hyperuricemia
serum glucose (change in words) ([1]; FIG. 2B, weeks 14 and 20): hyperglycemia
serum cholesterol (change in words) ([1]; FIG. 2C): numerical higher
serum triglycerides (change in words) [1]: higher in the F+HCTZ group but did not reach statistical significance
serum triglycerides (change in words) ([1]; listed as hydrochlorothiazide): numerical higher
Uric acid clearance ([1]; Table 1, mean±SD): 0.08 ± 0.03 ^& ml/min
Urine protein/Cr ([1]; Table 1, mean±SD): 2.53 ± 2.3
Urine uric acid ([1]; Table 1, mean±SD): 2.93 ± 1.0 ^& mg/day
Cr ([1]; Table 1, serum, week 20, mean±SD): 0.46 ± 0.11 mg/dL
BUN ([1]; rat, in vivo): 26.6 ± 14 *^, & mg/dL
Serum K^+ ([1]; rat, in vivo): 4.0 ± 0.1 *^, &, # mEq/L
Serum Mg^++ ([1]; rat, in vivo): 1.15 ± 0.1*^, & mEq/L
serum HCO3^− ([1]; rat, in vivo): 24.7±1.1 mEq/L
serum K^+ (in words) ([1]; rat, in vivo): significantly lower
serum uric acid ([1]; week 14 (implied by sentence), mean±SD): 2.69 ± 0.47 mg/dL
serum glucose ([1]; week 14, 4 h fasting serum, mean±SD): 176 ± 13.3 mg/dL
serum triglycerides ([1]; week 14, mean±SD): 492 ± 154 mg/dL
serum glucose ([1]; week 20, 4 h fasting serum, mean±SD): 186 ± 21.9 mg/dL and 186 ± 22 mg/dL
serum glucose ([1]; week 20, mean±SD): 186 ± 22 mg/dL
serum triglycerides ([1]; week 20, mean±SD): 489 ± 178 mg/dL
serum uric acid ([1]; week 20, mean±SD): 2.76 ± 0.59 mg/dL
effect on systolic blood pressure (in words) ([2]; FIG. 1, weeks 4 and 16): reduced the systolic blood pressure
systolic blood pressure (SBP) ([2]; week 4, tail cuff): 129±4.6 mmHg
systolic blood pressure (SBP) ([2]; week 16, tail cuff): 136±3.7 mmHg
QUICKI / insulin sensitivity (in words) ([3]; listed as HCTZ): significantly lower
QUICKI / insulin sensitivity (in words) ([3]; listed as hydrochlorothiazide): significant lower insulin sensitivity
serum insulin concentration ([3]; week 14, rat insulin ELISA, mean±SD): 3449 ± 1200 pg/mL
blood glucose response to intraperitoneal insulin in ITT (in words) [4]: maintained elevated serum glucose in response to insulin
blood glucose response to intraperitoneal insulin in ITT (in words) ([4]; listed as hydrochlorothiazide): no change of blood glucose
urine nitrate/nitrite excretion (in words) [5]: even lower nitrite excretion
urine nitrate/nitrite excretion (in words) ([5]; listed as Hydrochlorothiazide): more reduction of urine nitrate and nitrite
